Measurements reported in US5587463A, “Texaphyrin macrocycles and metal complexes thereof” (Board of Regents, The University of Texas System, priority 1994, dated 1996).

Tests used:
[1] = tested on: tumor; conditions: in vivo; cited from earlier work
[2] = 37° C. in water, 20 MHz; cited from earlier work
[3] = cited from earlier work
[4] = Optical and photophysical properties of metallotexaphyrins (laser flash photolysis, fluorescence, singlet oxygen luminescence); format: physicochemical; conditions: preliminary, photoexcitation at 350 nm
Text: Finally, several complexes containing paramagnetic metal ions (e.g. Mn^II, Sm^III, and Eu^III, structures 5c -7c) were investigated.
Comparison of the initial intensity with that obtained using tetrakis (4-hydroxyphenyl)porphyrin (THPP) as photosensitizer^3b under identical conditions allowed calculation of the quantum yields for production of singlet oxygen (^.phi. 1.cndot.2).

[5] = tested on: Herpes Simplex Virus Type 1 (HSV-1); experiment: HSV-1 photoinactivation, viral plaque assay in Vero cells; format: cell-based; conditions: for % Survival Viral Infectivity: light at max absorption, 10 J/cm^2
Text: The photosensitized inactivation of Herpes Simple Virus, Type 1 (HSV-1) was investigated in culture medium using various macrocycles of the present invention.
The macrocycle photosensitizing studies employed enveloped HSV-1 as the model for screening based on its ease of propagation and assessment of infectivity in cell culture. The screening procedure for photoinactivation of HSV-1 was similar to the methods previously described.^3 Essentially, selected macrocycles at different concentrations were added to a cell-free suspension of 10^6 PFU/ml of HSV-1. The viral suspensions were irradiated at the optimal absorption wavelength of the selected dye at different light-energy densities. Controls consisted of (1) nonirradiated virus, (2) virus irradiated in the absence of macrocycle, and (3) virus treated with selected concentrations of macrocycle and maintained in the dark. All samples were then assessed for viral infectivity by determining the number of PFU/ml in Vero cells.
Viral suspensions were serially diluted and subsequently absorbed onto Vero cell monolayers for 11/2 hours at 37^~ C. An overlay medium was added and the cells incubated at 37^~ C. for 3-4 days. The overlay medium was then removed, the monolayers fixed with methanol and tinctured with Giemsa, and individual plaques counted under a dissecting microscope. Uninfected cell cultures also were exposed to the macrocycle complexes to rule out direct cytotoxic effects.

[6] = tested on: peripheral mononucleated vascular cells (PMC); experiment: Mitogenic assay ([3H]-Thy uptake after PHA stimulation) of peripheral mononucleated vascular cells in whole human plasma; format: cell-based; conditions: 0.15 μM, 20 joules/cm^2 of 770 nm light, aerobic
Experimental: Cell kill was determined by [3H]-Thy uptake after phytohemagglutin (PHA) stimulation.
Cell kill was determined by [^3 H]-Thy uptake after PHA stimulation.
The inactivation of PMC's in the absence and presence of light after exposure to concentrations of complex 3A in whole human plasma ranging from 0.015 to 38 μM is shown in FIG. 29 and FIG. 30. Inactivation was judged by mitogenic assay. Toxicity onset with 3A (see FIG. 4B) and 1c (see FIG. 19) in the absence of light was between 0.15 and 1.5 μM (FIG. 29). […] Moderate increase in either photosensitizer concentration or light dosage is expected to result in essentially complete cellular inactivation.

[7] = Axial base binding of benzimidazole, 1H NMR spectral titration; conditions: CDCl3; Scatchard plot; estimated error ≤15%; read-out: K1 (benzimidazole) (converted)
Text: For a rigorously five coordinate starting cadmium complex, such as that represented schematically by structure 3A, where neither the counter anion nor adventitious ligands serves to occupy an apical coordination site, base binding can be considered to occur in accord with equations (1) and (2) shown below. Under conditions where K1 […]K2, these processes can be considered to occur sequentially, giving first a monoligated, presumably pentagonal pyramidal six coordinate species (such as 4bA), followed by a coordinatively saturated bisligated pentagonal bipyramidal product akin to 5aA. Where, however, K2 >>K1this stepwise conceptual approach is invalid. Under these conditions, it becomes easier to analyze the base binding in terms of direct formation of the bisligated material as shown in equation (3).
L+B LB K1 =[LB]/[L][B] (1)
LB+B LB2 K2 =[LB2 ]/[LB][B] (2)
L+2B LB2 K1 K2 =[LB2 ]/[L][B]^2 (3)
The ^1 H NMR titration of 3A .cndot.NO3 with BzIm or pyr-D5 was done. Rigorously purified complex 3A .cndot.NO3 was dried at 80° C. under reduced pressure (1 mmHg) for 1 day. Starting samples for titration were then prepared by dissolving this five coordinate complex (3.32 mg, 0.005 mmol) in 0.7 to 0.75 ml of CDCl3 and transferring quantitatively to an NMR tube. To such samples were then added increasing aliquots of either BzIm or pyr-D5 (as solutions of known concentration in CDCl3) and recording the chemical shift of the "meso" protons at 27^Q C. Control experiments were also carried out by adding known quantities of CF3 CO2 H, D2 O, and NH4 NO3 to similar stock solutions of 3.cndot.NO3.
Determination of Binding Constants. […] The chemical shift data obtained for the "meso" signals as a function of added BzIm were thus analyzed as such at both very low and very high conversion: Standard Scatchard (single reciprocal) plots^38 were constructed by plotting (δ-δo)/[BzIm] vs (δ-δo) according to equation 4 (which corresponds to eq. 5.13 of ref. 38), obtaining K as the absolute value of the slope and the term (δ.infin. -δo)K as the intercept.
(δ-δo)/[BzIm]=-K(δ-δo)+(δ.infi
Here δ is the observed chemical shift, δo is the initial chemical shift of the pure five or six coordinate starting complex (3A .cndot.NO3 or 4bA --NO3), δ.infin. the chemical shift calculated for the final mono- or bisligated complexes 4bA .cndot.NO3 or 5aA .cndot.NO3, K the equilibrium constant in question, and [BzIm] the concentration of free, uncomplexed benzimidazole. […] This was done in a straightforward manner according to the expressions given in equations 5 and 6, where [lig]o represents the concentration of the starting five coordinate ligand 3A .cndot.NO3.
(δ-δo)/δ.infin. -δo) at low
[BzIm].congruent.[BzIm]o -[lig]o at high [BzIm]o (6)
Using these corrected values for [BzIm], straight line Scatchard plots were obtained with R[…]0.99 and 0.98 respectively for the low and high [BzIm]o regimes giving values of K1 and K2 of 1.80×10^4 M^-1 and 12.9 M^-1 respectively.

[8] = Stability to demetallation (sulfide, thiosulfate); format: physicochemical
Text: The above K1 and K2 (or K1 K2) values are predicated on the assumption that the cadmium complexes under discussion are stable with regards to demetallation and that the equilibria of equations 1 and 2 (or 3) pertain under the conditions of base binding. The first of these concerns is readily apparent: If demetallation occurs, then obviously one is not studying base binding! […] The second concern is particularly important within the context of quantitative work: If, for instance, the starting complex 3.cndot.NO3 is not rigorously five coordinate, then K1 (and perhaps K2 as well) would represent an axial ligand displacement reaction rather than a pure addition process as implied above. Control experiments indicate that the assumption of initial five coordination is reasonable: Independent titrations of 3A .cndot.NO3 with NH4 NO3 and H2 O indicate that only modest and monotonic changes in the chemical shift of the "meso" signals take place over the course of adding ≥50 equivalents of these potentially adventitious ligands.^40 This means that either "complete" binding occurs at 1:1 stoichiometry (essentially ruled out in the case of H2 O on the basis of analytical data), or that these species are poorly coordinating in CHCl3 so that five coordination pertains about cadmium; the latter interpretation appearing more likely.
(§1) Attempts to demetallate complex 3A .cndot.NO3 were made. In an effort to obtain the free sp^2 bridged ligand 2A, the above complex in chloroform was stirred for several hours in the presence of sodium sulfide and independently with sodium thiosulfate. […] In the case of sodium sulfide, this critical conclusion was further supported by FAB MS: Other than the starting cationic complex 3A, no evidence was obtained for any moderate to high molecular weight volatile products in the mass spectrum. […] The rate of this process, however, is strongly pH dependent, the half-life being, for instance, on the order of several hours in the presence of ca. 0.1N HCl.

[9] = Hydrolysis in aqueous acid; format: physicochemical; conditions: aqueous acid
Text: as §1

[10] = aqueous solution; 0.01 to 1 mM; cited from earlier work

SMILES: O=S(=O)([O-])c1ccc(-c2c3nc(c(-c4ccc(S(=O)(=O)[O-])cc4)c4ccc([n-]4)c(-c4ccc(S(=O)(=O)[O-])cc4)c4ccc([n-]4)c(-c4ccc(S(=O)(=O)[O-])cc4)c4nc2C=C4)C=C3)cc1.[Mn+3] [[Mn(III)TPPS]^3 -]
- tumor localizing properties [1]: good tumor localizing properties

SMILES: CNC[C@H](O)[C@@H](O)[C@H](O)[C@H](O)CO.CNC[C@H](O)[C@@H](O)[C@H](O)[C@H](O)CO.O=C([O-])CN(CCN(CC(=O)[O-])CC(=O)O)CCN(CC(=O)[O-])CC(=O)O.[Gd+3] [[Gd(DTpA)(H2 O)]^2-, bis(N-methylglucamine) salt of Gd(III) diethylenetriaminepentaacetate]
- relaxivity [2]: 3.7 mM-^1 s-^1
- excretion ([3]; after administration): excreted intact through the kidneys within several days of administration
- localization ([3]; in vivo): localizes selectively in extracellular regions

SMILES: CCC1=C(C)c2cnc3ccccc3ncc3nc(cc4[n-]c(cc1n2)c(CC)c4CC)C(CC)=C3C.[Cd+2] [complex 3A]
- triplet quantum yield [4]: roughly 80%
- triplet quenching in the presence of air [4]: quenched completely by formation of singlet oxygen
- triplet lifetime ([4]; absence of oxygen): 54 μs
- % Survival Viral Infectivity ([5]; 0.25 μM): 100%
- % Survival Viral Infectivity ([5]; 2.5 μM): 20%
- % Survival Viral Infectivity ([5]; 10 μM): 8%
- % Survival Viral Infectivity ([5]; 20 μM): 12%
- viral inactivation ([5]; 20 μM, viral plaque assay): ≥ 90%
- inhibition of cellular division [6]: significant inhibition of the cellular division of PMC's
- Kd [7]: 55.6 µM
- demetallation by sulfide ([8]; aqueous Na2 S / excess sulfide anion): no demetallation takes place
- stability relative to cadmium porphyrins ([8]; neutral conditions / base binding controls): more stable than cadmium porphyrins
- hydrolysis in aqueous acid [9]: leads to hydrolysis of the macrocyle

SMILES: [Gd+3] [Gd(III)]
- toxicity for direct use in MRI imaging [10]: too toxic to be used directly
